Molecules are shown by their SMILES.

The subject of one assay is BTBR and B6 mice. Description: Open field test (OFT): locomotor activity and anxiety levels. It is filed as in vivo. The note with it: i.p.; for total distance travelled (OFT) / time spent in the periphery (OFT), effect of treatment: B6 and BTBR mice; for total distance travelled (OFT) / time spent in the central arena (OFT) vs vehicle-treated B6 mice / time spent in center (OFT) vs vehicle-treated BTBR mice: ST-2223 2.5, 5 and 10 mg/kg, MEM 5 mg/kg, ARP 1 mg/kg; for time spent in the periphery (OFT), effect of treatment: ST-2223 2.5, 5 or 10 mg/kg, MEM, ARP. On the procedure: The drugs tested included ST-2223 [N-(4-(4-(2-methoxyphenyl)piperazin-1-yl)butyl)-6-(3-(piperidin-1-yl)propoxy)-2-naphthamide] that was designed and synthesized in the Institute of Pharmaceutical and Medicinal Chemistry, Heinrich Heine University Düsseldorf, Germany, and in accordance with previously described methodologies (Supplementary Materials). Aripiprazole (ARP) (1 mg/kg, i.p.) and memantine (MEM, 5 mg/kg, i.p.), as reference drugs, were purchased from Sigma-Aldrich (St. Louis, MO, USA). The CNS-penetrant H3R agonist (R)-α-methylhistamine (RAM, 10 mg/kg, i.p.) was purchased from Sigma-Aldrich, St. Louis, MO, USA. T. Protease and the phosphatase inhibitor cocktail were procured from Thermo Scientific, USA. The assay kit for reduced glutathione (GSH) was obtained from Sigma-Aldrich (St. Louis, MO, USA). The lipid peroxidation assay kit for estimation of malondialdehyde (MDA) was purchased from North West Life Science (Vancouver, WA, USA). The assay kits for superoxide dismutase (SOD) and catalase (CAT) were purchased from Cayman Chemical (Ann Arbor, MI, USA). The drugs were prepared daily using 1% dimethyl sulfoxide (DMSO) in 0.9% saline, for intraperitoneal (i.p.) administration at a volume of 10 mL/kg of body weight. Vehicle treatment consisted of 1% DMSO in 0.9% normal saline. All drugs were i.p. administered 30 min before the behavioral test. The doses of these drugs were chosen based on previous reports. Neurobehavioral assessment was performed blindly with respect to experimental group and drug administration.
The open field test (OFT) systematically evaluates exploration behaviors executed in a novel open field (considered as a novel environment), as an independent control for the effects of the drugs on physical activity that could confound the interpretation of the results from the self-grooming, anxiety and spontaneous alternation. Mice were allowed to freely explore an open-field arena (45 × 45 × 30 cm), to assess general locomotor activity, and anxiety-related behaviors. The center arena was defined as the central 23 × 23 cm area. Mice were given 5 min to habituate in the center area of the arena before the recording started for the actual behavioral assessments. Recording lasted for 10 min using charge-coupled device (CCD) camera-assisted motion tracking apparatus and software (EthoVision 3.1, Noldus Information Technology, The Netherlands), and the total distance moved in the whole arena, time spent in the center and periphery were recorded. Test chambers were cleaned with 70% ethanol after each trial and were allowed to dry until ethanol evaporation and odor dissipation had occurred. When interpreting the results observed in this assessment, less time spent in the center was considered as an indicator for high levels of anxiety-like behaviors and total distance travelled signified the overall locomotor activity of tested animals.

Details of assay [1]: method as in PMID 31647973. Particulars: systemic pretreatment; cited from earlier work.
The next assay concerns VPA mouse model of ASD. The arrangement: method as in PMID 26074764. The note with it: cited from earlier work.
The next assay addresses T1, human H3R (Homo sapiens, UniProt Q9Y5N1).
T1 construct: expressed in transfected cells
Description: [3H]Nα-methylhistamine binding assay, membranes of HEK cells. Particulars: HEK cells stably expressing human H3R, n = 4; read-out: Ki (hH3R). On the procedure:
(§1) In accordance with previous experimental protocols, the binding affinity of ST-2223 for H3Rs was assessed by applying the [^3H]N^α-methylhistamine binding assay, performed with cell membrane preparation of HEK cells stably expressing the human H3R (n = 4). In addition, and as previously described, the binding affinity of ST-2223 for human dopamine hD1Rs and hD5Rs (HEK) against [^3H]SCH23390 and hD2SRs, hD3Rs (CHO) using [^3H]spiperone (n = 3) was assessed (n = 3).

The target of a further assay is EqBuChE (Equus caballus, UniProt P81908). In words: Butyrylcholinesterase inhibition, modified Ellman's method. It is filed as biochemical, equine. Particulars: 1 μM (1000 nM) of compound; preliminary data, n = 2.
Chain of EqBuChE (P81908 whole entry): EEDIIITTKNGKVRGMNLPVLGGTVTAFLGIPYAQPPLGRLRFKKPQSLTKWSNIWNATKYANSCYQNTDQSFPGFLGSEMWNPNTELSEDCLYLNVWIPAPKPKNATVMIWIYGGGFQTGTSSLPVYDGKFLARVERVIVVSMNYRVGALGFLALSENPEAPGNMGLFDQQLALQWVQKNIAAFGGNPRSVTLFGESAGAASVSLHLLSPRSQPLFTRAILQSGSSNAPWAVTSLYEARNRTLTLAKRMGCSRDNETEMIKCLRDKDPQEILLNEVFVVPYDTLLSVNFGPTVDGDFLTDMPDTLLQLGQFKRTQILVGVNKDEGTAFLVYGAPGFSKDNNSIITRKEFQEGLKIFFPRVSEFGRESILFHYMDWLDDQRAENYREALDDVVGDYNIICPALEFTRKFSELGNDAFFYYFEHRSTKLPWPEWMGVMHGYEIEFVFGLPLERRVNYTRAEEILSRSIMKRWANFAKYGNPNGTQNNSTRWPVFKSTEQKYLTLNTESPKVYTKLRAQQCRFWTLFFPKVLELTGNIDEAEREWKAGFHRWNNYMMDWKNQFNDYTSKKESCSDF
The next assay deals with T2, hD5Rs (Homo sapiens, UniProt P21918).
T2 construct: expressed in transfected cells
T2 sequence (P21918 whole entry): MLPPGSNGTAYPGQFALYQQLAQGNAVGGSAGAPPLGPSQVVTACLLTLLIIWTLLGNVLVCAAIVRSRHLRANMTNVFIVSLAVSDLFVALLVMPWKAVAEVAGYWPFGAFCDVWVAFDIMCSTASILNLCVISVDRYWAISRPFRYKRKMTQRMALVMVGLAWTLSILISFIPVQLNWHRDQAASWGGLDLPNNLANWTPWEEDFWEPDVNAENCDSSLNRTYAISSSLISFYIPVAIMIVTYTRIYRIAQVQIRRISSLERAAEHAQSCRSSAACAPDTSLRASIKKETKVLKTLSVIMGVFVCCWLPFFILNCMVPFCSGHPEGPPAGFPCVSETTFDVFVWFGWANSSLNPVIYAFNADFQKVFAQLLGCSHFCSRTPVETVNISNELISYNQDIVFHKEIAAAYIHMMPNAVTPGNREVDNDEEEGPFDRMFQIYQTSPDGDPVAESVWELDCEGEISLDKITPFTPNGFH
Description: [3H]SCH23390 displacement assay, HEK cell membranes. Type of assay: binding. The method, then:
as §1

Another assay has as its target T3, hD1Rs (Homo sapiens, UniProt P21728).
T3 construct: expressed in transfected cells
Described as above. Type of assay: binding. On the procedure: as §1

Another assay has as its target EeAChE (Electrophorus electricus, UniProt O42275). In words: Acetylcholinesterase inhibition, modified Ellman's method. It is filed as biochemical, electric eel. Particulars: 1 μM (1000 nM) of compound; preliminary data. A general note: Ellman's reagent forms a yellow product with free thiols.
The next assay concerns the target T4, hD2SRs (Homo sapiens, UniProt P14416).
T4 construct: expressed in transfected cells
Description: [3H]spiperone displacement assay, CHO cell membranes. It is filed as binding. The method, then:
as §1

The next assay deals with T5, hD3Rs (Homo sapiens, UniProt P35462).
T5 construct: expressed in transfected cells
T5 sequence (P35462 whole entry): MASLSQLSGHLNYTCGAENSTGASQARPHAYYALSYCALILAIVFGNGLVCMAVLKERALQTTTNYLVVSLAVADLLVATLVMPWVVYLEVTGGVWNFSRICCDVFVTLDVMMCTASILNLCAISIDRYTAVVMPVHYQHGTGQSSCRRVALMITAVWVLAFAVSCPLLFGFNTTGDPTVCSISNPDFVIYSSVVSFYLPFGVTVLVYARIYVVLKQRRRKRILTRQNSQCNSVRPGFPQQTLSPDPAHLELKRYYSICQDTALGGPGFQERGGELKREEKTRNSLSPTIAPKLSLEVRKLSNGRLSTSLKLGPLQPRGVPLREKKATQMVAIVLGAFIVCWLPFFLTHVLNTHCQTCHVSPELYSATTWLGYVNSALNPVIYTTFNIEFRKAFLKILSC
The description is as above. Type of assay: binding. On the procedure: as §1

In a further assay the target is T6, hH1R (Homo sapiens, UniProt P35367).
T6 construct: expressed in transfected cells
T6 sequence (P35367 whole entry): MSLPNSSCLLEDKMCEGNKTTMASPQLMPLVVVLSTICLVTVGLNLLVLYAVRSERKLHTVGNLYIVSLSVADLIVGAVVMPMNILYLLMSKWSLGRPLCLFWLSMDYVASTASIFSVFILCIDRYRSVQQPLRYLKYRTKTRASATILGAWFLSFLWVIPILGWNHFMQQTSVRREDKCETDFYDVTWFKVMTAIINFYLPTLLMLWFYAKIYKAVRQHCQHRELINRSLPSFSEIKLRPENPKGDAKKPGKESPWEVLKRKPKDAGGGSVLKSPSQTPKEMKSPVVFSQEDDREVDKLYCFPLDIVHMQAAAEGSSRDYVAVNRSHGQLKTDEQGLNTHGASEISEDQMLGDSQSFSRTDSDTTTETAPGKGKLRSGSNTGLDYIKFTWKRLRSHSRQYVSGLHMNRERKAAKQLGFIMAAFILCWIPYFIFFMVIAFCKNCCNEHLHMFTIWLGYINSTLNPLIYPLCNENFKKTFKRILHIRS
In words: [3H]pyrilamine binding assay, membranes of CHO cells.

T3 sequence (P21728 whole entry): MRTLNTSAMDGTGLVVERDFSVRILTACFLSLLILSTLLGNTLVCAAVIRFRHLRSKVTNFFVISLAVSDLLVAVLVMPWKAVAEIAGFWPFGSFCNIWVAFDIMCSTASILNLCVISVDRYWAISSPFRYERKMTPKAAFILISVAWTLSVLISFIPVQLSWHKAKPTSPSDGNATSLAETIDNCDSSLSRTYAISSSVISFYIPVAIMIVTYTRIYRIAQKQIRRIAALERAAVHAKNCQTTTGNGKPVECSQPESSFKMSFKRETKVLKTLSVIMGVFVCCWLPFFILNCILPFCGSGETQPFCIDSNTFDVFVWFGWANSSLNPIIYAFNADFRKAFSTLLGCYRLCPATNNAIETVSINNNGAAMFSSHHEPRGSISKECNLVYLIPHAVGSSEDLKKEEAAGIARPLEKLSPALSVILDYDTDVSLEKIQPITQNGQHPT
T4 sequence (P14416 1-414 isoform P14416-2): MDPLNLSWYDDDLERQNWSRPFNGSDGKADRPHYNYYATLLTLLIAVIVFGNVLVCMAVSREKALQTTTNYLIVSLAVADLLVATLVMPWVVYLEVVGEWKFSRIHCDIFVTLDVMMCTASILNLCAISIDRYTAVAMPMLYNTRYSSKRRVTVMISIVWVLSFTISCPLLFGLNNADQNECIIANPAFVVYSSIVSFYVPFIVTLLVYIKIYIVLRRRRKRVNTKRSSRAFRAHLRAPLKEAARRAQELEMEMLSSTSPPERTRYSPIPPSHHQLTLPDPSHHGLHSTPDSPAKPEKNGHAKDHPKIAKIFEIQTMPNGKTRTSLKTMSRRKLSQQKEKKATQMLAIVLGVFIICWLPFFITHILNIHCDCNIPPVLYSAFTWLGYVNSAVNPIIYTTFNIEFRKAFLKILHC
Chain of EeAChE (O42275 24-633): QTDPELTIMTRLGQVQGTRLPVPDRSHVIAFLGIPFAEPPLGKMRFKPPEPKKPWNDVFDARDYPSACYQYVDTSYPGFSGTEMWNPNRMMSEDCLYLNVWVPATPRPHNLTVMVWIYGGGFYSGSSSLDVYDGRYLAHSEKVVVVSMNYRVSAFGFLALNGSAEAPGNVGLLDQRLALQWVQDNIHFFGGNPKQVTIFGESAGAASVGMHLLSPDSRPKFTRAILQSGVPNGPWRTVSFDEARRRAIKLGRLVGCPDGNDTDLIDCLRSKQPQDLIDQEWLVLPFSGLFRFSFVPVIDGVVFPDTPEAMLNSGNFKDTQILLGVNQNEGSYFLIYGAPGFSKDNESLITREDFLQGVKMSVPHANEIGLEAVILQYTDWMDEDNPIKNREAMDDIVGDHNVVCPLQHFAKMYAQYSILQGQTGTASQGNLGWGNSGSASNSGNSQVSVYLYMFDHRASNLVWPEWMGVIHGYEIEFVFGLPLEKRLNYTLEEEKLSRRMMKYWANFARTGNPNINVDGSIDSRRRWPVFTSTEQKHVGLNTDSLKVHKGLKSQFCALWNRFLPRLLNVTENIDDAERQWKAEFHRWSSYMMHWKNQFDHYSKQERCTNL
T1 sequence (Q9Y5N1 whole entry): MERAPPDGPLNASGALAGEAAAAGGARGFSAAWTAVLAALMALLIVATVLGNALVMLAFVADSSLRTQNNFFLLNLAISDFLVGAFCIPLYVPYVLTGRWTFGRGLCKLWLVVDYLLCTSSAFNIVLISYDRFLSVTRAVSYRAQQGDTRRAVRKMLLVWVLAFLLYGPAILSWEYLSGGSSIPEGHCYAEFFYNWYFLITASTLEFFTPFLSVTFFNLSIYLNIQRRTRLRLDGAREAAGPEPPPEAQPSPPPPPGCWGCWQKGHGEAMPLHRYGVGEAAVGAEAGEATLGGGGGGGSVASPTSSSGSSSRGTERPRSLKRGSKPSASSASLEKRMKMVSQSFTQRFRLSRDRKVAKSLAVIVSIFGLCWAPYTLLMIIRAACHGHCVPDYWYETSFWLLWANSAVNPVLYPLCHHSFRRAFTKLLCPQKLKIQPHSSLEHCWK

In the case of `O=C1CCc2ccc(OCCCCN3CCN(c4cccc(Cl)c4Cl)CC3)cc2N1` [ARP, aripiprazole], in the assay with BTBR and B6 mice, the “total distance travelled (OFT)” value was “did not show any alteration”; the “time spent in the periphery (OFT), effect of treatment” value (shortened to “time spent in the periphery (OFT)”) was “no significant effect”; the “time spent in the central arena (OFT) vs vehicle-treated B6 mice” value (“time spent … vs vehicle-treated B6 mice” for short) was “did not alter”; the “time spent in center (OFT) vs vehicle-treated BTBR mice” value is listed as “significantly increased”. In addition, the “enhanced frequency of self-grooming induced by neuromedin U” value in assay [1] is “attenuation”.

On to `CC12CC3CC(C)(C1)CC(N)(C3)C2` [MEM, memantine], for which, in the assay on BTBR and B6 mice, the “total distance travelled (OFT)” value was “did not show any alteration”; the “time spent in the periphery (OFT)” value was “no significant effect”; the “time spent … vs vehicle-treated B6 mice” value is listed as “did not alter”; the “time spent in center (OFT) vs vehicle-treated BTBR mice” value was “failed to significantly mitigate”. Further, the “social deficits and repetitive behaviors (self-grooming, jumping)” value in the assay with VPA mouse model of ASD is “rescued”.

By Ki is commonly meant the dissociation constant of the complex between target and ligand, obtained from inhibition or displacement. For orientation: inhibition means the share of the control response that was lost under treatment. For the compound `COc1ccccc1N1CCN(CCCCNC(=O)c2ccc3cc(OCCCN4CCCCC4)ccc3c2)CC1` [ST-2223, N-(4-(4-(2-methoxyphenyl)piperazin-1-yl)butyl)-6-(3-(piperidin-1-yl)propoxy)-2-naphthamide], the Ki at human H3R turned out to be 4.8 nM; at hD5Rs, 5060 nM; on hD1Rs it was 564 nM; at hD2SRs it was 19.8 nM; at hD3Rs, 2 nM; on hH1R it was 85.2 nM. In addition, the “total distance travelled (OFT)” value in the assay on BTBR and B6 mice was “did not show any alteration”. For the same compound, the “time spent in the periphery (OFT)” value in the assay on BTBR and B6 mice is “no significant effect”. Moreover, the “time spent … vs vehicle-treated B6 mice” value with BTBR and B6 mice is recorded as “did not alter”. Further, the “time spent in center (OFT) vs vehicle-treated BTBR mice” value in the assay on BTBR and B6 mice is reported as “significantly increased”. Moreover, the figures for the inhibition at 1 µM against EqBuChE and against EeAChE were less than 30% and less than 60%, respectively. For the same compound, the “hD2R/hD3R ratio of Ki values” on hD3Rs (preference for hD3R) is listed as 10.

The record behind these values is publication PMC7920280, “The Multi-Targeting Ligand ST-2223 with Histamine H3 Receptor and Dopamine D2/D3 Receptor Antagonist Properties Mitigates Autism-Like Repetitive Behaviors and Brain Oxidative Stress in Mice” (International Journal of Molecular Sciences, 2021).
